Measured values taken from patent US20260258025A1, “INHIBITORS OF TDP-43 AND TAU AGGREGATION” (Aquinnah Pharmaceuticals, inc., priority 2023, published 2026).

Tested on: TDP-43 aggregation
Assay: TDP-43 aggregation assay in SY5Y TDP-43WT cells (high content imaging)
Type: cell-based
Details: Homo sapiens, tetracycline induction 24 hrs, 1 hour compound pre-treatment, sodium arsenite 23 hrs, 8-point dose curve, percentage of cells with TDP-43 aggregates, read-out: IC50, Inhibition of TDP-43 Aggregation
Experimental: Exemplary compounds disclosed herein were evaluated for efficacy in inhibiting TDP-43 inclusions cellular imaging-based assays.
The cellular model was in human neuroblastoma SH SYSY cells (ATCC, cat #: CRL-2266). The parent cell line was first engineered to stably express a tetracycline repressor protein (designated as TREx-SY5Y cells, customer cell line development by ThermoFisher). Wild-type human TDP-43 with a C-terminus eGFP tag was synthesized and cloned into pcDNA5/TO expression vector (ThermoFisher). The plasmid was transfected into TREx-SY5Y cells using Lipofectamine 2000 and hygromycin resistant colonies were selected. Expression of TDP-43WT::eGFP was examined under fluorescent microscopy and Western blot upon tetracycline induction. The clone that was used for TDP-43 aggregation assay is referred to as SY5Y TDP-43WT cells hereafter.
Compound inhibition of TDP-43 aggregation was tested in an 8-point dose curve in 96-well format. Briefly, TDP-43WT::eGFP expression was induced with […] for 24 hrs (SY5Y TDP-43WT cells). The cells were then pre-treated for 1 hour with exemplary compounds before adding sodium arsenite to a final concentration of […] and incubated for another 23 hrs. At the end of the treatment the cell monolayers were washed in PBS and fixed in 4% paraformaldehyde (PFA), diluted from 16% stock (Electron Microscopy Sciences cat: #15710-S). The inhibitory effect on TDP-43 aggregation was measured using CellInsight CX7 high content imager (ThermoFisher). The percentage of cells with TDP-43 aggregates was calculated based on the total number of cells identified by DAPI staining. An 8-point dose response curve was generated, and the IC50 for each compound tested was determined (Table 3).
In Table 3 below, A indicates an IC50 (nM)<500 nM, B indicates an IC50 (nM) 500 nM to <1000 nM, C indicates an IC50 (nM) 1000 nM to <2000 nM, D indicates an IC50 (nM) 2000 nM to <6000 nM, and E indicates an IC50 (nM) 6000 nM to ≤10000 nM.

`CC(C)(O)CN1CCC(c2ccc(-c3cc(Cl)c(C(=O)N4CC[C@H](N)C4)s3)cc2F)CC1` [Compound 256, (S)-(3-aminopyrrolidin-1-yl)(3-chloro-5-(3-fluoro-4-(1-(2-hydroxy-2-methylpropyl)piperidin-4-yl)phenyl)thiophen-2-yl)methanone] and `Cc1cc(-c2ccc(C3CCN(CC(C)(C)O)CC3)c(F)c2)sc1C(=O)N1CC[C@H](N)C1` [Compound 257, (S)-(3-aminopyrrolidin-1-yl)(5-(3-fluoro-4-(1-(2-hydroxy-2-methylpropyl)piperidin-4-yl)phenyl)-3-methylthiophen-2-yl)methanone] cannot be ordered by IC50: under 500 nM for the first, under 500 nM for the second.

`COCCN1CCC(c2ccc(-c3cc(Cl)c(C(=O)N4CC[C@H](N)C4)s3)cc2)CC1` [Compound 258, (S)-(3-aminopyrrolidin-1-yl)(3-chloro-5-(4-(1-(2-methoxyethyl)piperidin-4-yl)phenyl)thiophen-2-yl)methanone] and `COCCCN1CCC(c2ccc(-c3cc(Cl)c(C(=O)N4CC[C@H](N)C4)s3)cc2F)CC1` [Compound 268, (S)-(3-aminopyrrolidin-1-yl)(3-chloro-5-(3-fluoro-4-(1-(3-methoxypropyl)piperidin-4-yl)phenyl)thiophen-2-yl)methanone] cannot be ordered by IC50: under 500 nM for the first, under 500 nM for the second.

First: COc1cc(C2CCN(C3CCOCC3)CC2)ccc1-c1cc(C)c(C(=O)N2CC[C@H](N)C2)s1 [Compound 259, (S)-(3-aminopyrrolidin-1-yl)(5-(2-methoxy-4-(1-(tetrahydro-2H-pyran-4-yl)piperidin-4-yl)phenyl)-3-methylthiophen-2-yl)methanone]
Second: COc1cc(-c2cc(C)c(C(=O)N3CC[C@H](N)C3)s2)ccc1C1CCN(C2CCOCC2)CC1 [Compound 260, (S)-(3-aminopyrrolidin-1-yl)(5-(3-methoxy-4-(1-(tetrahydro-2H-pyran-4-yl)piperidin-4-yl)phenyl)-3-methylthiophen-2-yl)methanone]
The IC50 of the first is higher: 2000 to 6000 nM for the first, 1000 to 2000 nM for the second. The second is the more potent here.

`Cc1cc(-c2ccc(C3CCN(C4CCOCC4)CC3)c(OC(F)(F)F)c2)sc1C(=O)N1CC[C@H](N)C1` [Compound 261, (S)-(3-aminopyrrolidin-1-yl)(3-methyl-5-(4-(1-(tetrahydro-2H-pyran-4-yl)piperidin-4-yl)-3-(trifluoromethoxy)phenyl)thiophen-2-yl)methanone] and `COc1cc(-c2ccc(C3CCN(C4CCOCC4)CC3)c(Cl)c2)sc1C(=O)N1CC[C@H](N)C1` [Compound 272, (S)-(3-aminopyrrolidin-1-yl)(5-(3-chloro-4-(1-(tetrahydro-2H-pyran-4-yl)piperidin-4-yl)phenyl)-3-methoxythiophen-2-yl)methanone] fall in the same range of IC50: 1000 to 2000 nM for the first, 1000 to 2000 nM for the second.

`Cc1cc(-c2ccc(C3CCN(CCO)CC3)c(F)c2)sc1C(=O)N1CC[C@H](N)C1` [Compound 262, (S)-(3-aminopyrrolidin-1-yl)(5-(3-fluoro-4-(1-(2-hydroxyethyl)piperidin-4-yl)phenyl)-3-methylthiophen-2-yl)methanone] and `N[C@H]1CCN(C(=O)c2sc(-c3ccc(C4CCN(CCO)CC4)c(F)c3)cc2Cl)C1` [Compound 263, (S)-(3-aminopyrrolidin-1-yl)(3-chloro-5-(3-fluoro-4-(1-(2-hydroxyethyl)piperidin-4-yl)phenyl)thiophen-2-yl)methanone] cannot be ordered by IC50: under 500 nM for the first, under 500 nM for the second.

`Cc1cc(-c2ccc(C3CCN(C4COC4)CC3)c(F)c2)sc1C(=O)N1CC[C@H](N)C1` [Compound 264, (S)-(3-aminopyrrolidin-1-yl)(5-(3-fluoro-4-(1-(oxetan-3-yl)piperidin-4-yl)phenyl)-3-methylthiophen-2-yl)methanone] and `Cc1cc(-c2ccc(C3CCN(C4CCOC4)CC3)c(F)c2)sc1C(=O)N1CC[C@H](N)C1` (stereo partly drawn) [Compound 274, ((S)-3-aminopyrrolidin-1-yl)(5-(3-fluoro-4-(1-(tetrahydrofuran-3-yl)piperidin-4-yl)phenyl)-3-methylthiophen-2-yl)methanone] cannot be ordered by IC50: under 500 nM for the first, under 500 nM for the second.

`N[C@H]1CCN(C(=O)c2sc(-c3ccc(C4CCN(C5COC5)CC4)c(F)c3)cc2Cl)C1` [Compound 265, (S)-(3-aminopyrrolidin-1-yl)(3-chloro-5-(3-fluoro-4-(1-(oxetan-3-yl)piperidin-4-yl)phenyl)thiophen-2-yl)methanone] and `N[C@H]1CCN(C(=O)c2sc(-c3ccc(C4CCN(C5CCOC5)CC4)c(F)c3)cc2Cl)C1` (stereo partly drawn) [Compound 267, ((S)-3-aminopyrrolidin-1-yl)(3-chloro-5-(3-fluoro-4-(1-(tetrahydrofuran-3-yl)piperidin-4-yl)phenyl)thiophen-2-yl)methanone] cannot be ordered by IC50: under 500 nM for the first, under 500 nM for the second.

`CCN1CCC(c2ccc(-c3cc(Cl)c(C(=O)N4CC[C@H](N)C4)s3)cc2F)CC1` [Compound 266, (S)-(3-aminopyrrolidin-1-yl)(3-chloro-5-(4-(1-ethylpiperidin-4-yl)-3-fluorophenyl)thiophen-2-yl)methanone] and `N[C@H]1CCN(C(=O)c2sc(-c3ccc(C4CCN(C5CCC5)CC4)c(F)c3)cc2Cl)C1` [Compound 271, (S)-(3-aminopyrrolidin-1-yl)(3-chloro-5-(4-(1-cyclobutylpiperidin-4-yl)-3-fluorophenyl)thiophen-2-yl)methanone] cannot be ordered by IC50: under 500 nM for the first, under 500 nM for the second.

`N[C@H]1CCN(C(=O)c2sc(-c3ccc(C4CCN(C5CCCCC5)CC4)c(F)c3)cc2Cl)C1` [Compound 269, (S)-(3-aminopyrrolidin-1-yl)(3-chloro-5-(4-(1-cyclohexylpiperidin-4-yl)-3-fluorophenyl)thiophen-2-yl)methanone] and `N[C@H]1CCN(C(=O)c2sc(-c3ccc(C4CCN(C5CCCC5)CC4)c(F)c3)cc2Cl)C1` [Compound 270, (S)-(3-aminopyrrolidin-1-yl)(3-chloro-5-(4-(1-cyclopentylpiperidin-4-yl)-3-fluorophenyl)thiophen-2-yl)methanone] cannot be ordered by IC50: under 500 nM for the first, under 500 nM for the second.

`N[C@H]1CCN(C(=O)c2sc(-c3ccc(C4CCN(C5CCOCC5)CC4)c(Cl)c3)cc2Cl)C1` [Compound 273, (S)-(3-aminopyrrolidin-1-yl)(3-chloro-5-(3-chloro-4-(1-(tetrahydro-2H-pyran-4-yl)piperidin-4-yl)phenyl)thiophen-2-yl)methanone] and `Cc1cc(-c2ccc(C3CCN(C4CCCC4)CC3)c(F)c2)sc1C(=O)N1CC[C@H](N)C1` [Compound 278, (S)-(3-aminopyrrolidin-1-yl)(5-(4-(1-cyclopentylpiperidin-4-yl)-3-fluorophenyl)-3-methylthiophen-2-yl)methanone] cannot be ordered by IC50: under 500 nM for the first, under 500 nM for the second.

`COCCCN1CCC(c2ccc(-c3cc(C)c(C(=O)N4CC[C@H](N)C4)s3)cc2F)CC1` [Compound 275, (S)-(3-aminopyrrolidin-1-yl)(5-(3-fluoro-4-(1-(3-methoxypropyl)piperidin-4-yl)phenyl)-3-methylthiophen-2-yl)methanone] and `COCCN1CCC(c2ccc(-c3cc(C)c(C(=O)N4CC[C@H](N)C4)s3)cc2F)CC1` [Compound 276, (S)-(3-aminopyrrolidin-1-yl)(5-(3-fluoro-4-(1-(2-methoxyethyl)piperidin-4-yl)phenyl)-3-methylthiophen-2-yl)methanone] cannot be ordered by IC50: under 500 nM for the first, under 500 nM for the second.

Work on `Cc1cc(-c2ccc(C3CCN(C4CCCCC4)CC3)c(F)c2)sc1C(=O)N1CC[C@H](N)C1` [Compound 277, (S)-(3-aminopyrrolidin-1-yl)(5-(4-(1-cyclohexylpiperidin-4-yl)-3-fluorophenyl)-3-methylthiophen-2-yl)methanone] yielded an IC50 of under 500 nM.
